# Measured values from patent publication US9169254B2, “Spiroimidazolone derivative” (Chugai Seiyaku Kabushiki Kaisha, priority 2009, dated 2015).
# Molecular target: T1, human PTH1 receptor (Homo sapiens, UniProt Q03431)
# T1 sequence (Q03431 27-593): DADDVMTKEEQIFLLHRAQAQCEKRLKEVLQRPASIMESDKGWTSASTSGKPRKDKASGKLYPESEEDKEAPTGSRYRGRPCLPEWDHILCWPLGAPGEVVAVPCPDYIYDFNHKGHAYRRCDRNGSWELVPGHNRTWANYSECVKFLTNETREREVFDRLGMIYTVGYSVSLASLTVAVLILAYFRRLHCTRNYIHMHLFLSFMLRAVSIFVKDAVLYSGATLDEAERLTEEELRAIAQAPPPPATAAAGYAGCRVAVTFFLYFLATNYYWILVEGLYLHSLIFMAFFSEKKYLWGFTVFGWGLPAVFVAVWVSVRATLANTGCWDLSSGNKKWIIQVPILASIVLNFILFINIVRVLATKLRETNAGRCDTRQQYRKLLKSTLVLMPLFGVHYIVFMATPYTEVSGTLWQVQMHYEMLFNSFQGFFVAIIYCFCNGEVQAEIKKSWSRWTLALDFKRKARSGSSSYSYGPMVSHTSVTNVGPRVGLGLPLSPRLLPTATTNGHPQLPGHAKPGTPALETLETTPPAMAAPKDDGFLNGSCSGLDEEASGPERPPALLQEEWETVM
# Assay: In vitro cAMP signal activity in HKRK-B7 cells (LLC-PK1 cells overexpressing the human PTH1 receptor)
# Assay type: cell-based
# Details: HKRK-B7 cells; compound at 1×10^−3 M; cAMP produced as percentage of that produced by hPTH(1-34) at 100 nM
row,cAMP production activity (%),Structure (SMILES)
1,19%,"COC(=O)NCCc1ccc(/C=C/S(=O)(=O)N2CCC3(CC2)N=C(C2CCCCC2)NC3=O)cc1 [Compound 566, (2-{4-[(E)-2-(2-cyclohexyl-4-oxo-1,3,8-triaza-spiro[4.5]dec-1-ene-8-sulfonyl)-vinyl]-phenyl}-ethyl)-carbamic acid methyl ester]"
2,24%,"CN1CCN(C(=O)NCc2ccc(/C=C/S(=O)(=O)N3CCC4(CC3)N=C(C3CCCCC3)NC4=O)cc2)CC1 [Compound 567, 4-methyl-piperazine-1-carboxylic acid 4-[(E)-2-(2-cyclohexyl-4-oxo-1,3,8-triaza-spiro[4.5]dec-1-ene-8-sulfonyl)-vinyl]-benzylamide]"
3,39%,"Cc1cc(NS(=O)(=O)N(C)C)ccc1/C=C/S(=O)(=O)N1CCC2(CC1)N=C(C1CCCCC1)NC2=O [Compound 568, N-{4-[(E)-2-(2-cyclohexyl-4-oxo-1,3,8-triaza-spiro[4.5]dec-1-ene-8-sulfonyl)-vinyl]-3-methyl-phenyl}-N′,N′-dimethyl-sulfamide]"
4,4.2%,"Cc1cc(CN(CCCN(C)C)C(=O)OC(C)(C)C)ccc1/C=C/S(=O)(=O)N1CCC2(CC1)N=C(C1CCCCC1)NC2=O [Compound 569, {4-[(E)-2-(2-cyclohexyl-4-oxo-1,3,8-triaza-spiro[4.5]dec-1-ene-8-sulfonyl)-vinyl]-3-methyl-benzyl}-(3-dimethylamino-propyl)-carbamic acid tert-butyl ester]"
5,66%,"CC(C)(C)CNC(=O)Cc1ccc(/C=C/S(=O)(=O)N2CCC3(CC2)N=C(C2CCCCC2)NC3=O)cc1 [Compound 570, 2-{4-[(E)-2-(2-cyclohexyl-4-oxo-1,3,8-triaza-spiro[4.5]dec-1-ene-8-sulfonyl)-vinyl]-phenyl}-N-(2,2-dimethyl-propyl)-acetamide]"
6,39%,"CC(C)N(CCNC(=O)Cc1ccc(/C=C/S(=O)(=O)N2CCC3(CC2)N=C(C2CCCCC2)NC3=O)cc1)C(C)C [Compound 571, 2-{4-[(E)-2-(2-cyclohexyl-4-oxo-1,3,8-triaza-spiro[4.5]dec-1-ene-8-sulfonyl)-vinyl]-phenyl}-N-(2-diisopropylamino-ethyl)-acetamide]"
7,36%,"Cc1cc(N2CCC2=O)ccc1/C=C/S(=O)(=O)N1CCC2(CC1)N=C(C1CCCCC1)NC2=O [Compound 572, 2-cyclohexyl-8-{(E)-2-[2-methyl-4-(2-oxo-azetidin-1-yl)-phenyl]-ethenesulfonyl}-1,3,8-triaza-spiro[4.5]dec-1-en-4-one]"
8,35%,"Cc1cc(Nc2nccs2)cc(C)c1/C=C/S(=O)(=O)N1CCC2(CC1)N=C(C1CCCCC1)NC2=O [Compound 573, 2-cyclohexyl-8-{(E)-2-[2,6-dimethyl-4-(thiazol-2-ylamino)-phenyl]-ethenesulfonyl}-1,3,8-triaza-spiro[4.5]dec-1-en-4-one]"
9,42%,"CC(=O)N(CC1(C)COC1)c1cc(C)c(/C=C/S(=O)(=O)N2CCC3(CC2)N=C(C2CCCCC2)NC3=O)c(C)c1 [Compound 574, N-{4-[(E)-2-(2-cyclohexyl-4-oxo-1,3,8-triaza-spiro[4.5]dec-1-ene-8-sulfonyl)-vinyl]-3,5-dimethyl-phenyl}-N-(3-methyl-oxetan-3-ylmethyl)-acetamide]"
10,57%,"Cc1cc(N2C(=O)CNC2=O)cc(C)c1/C=C/S(=O)(=O)N1CCC2(CC1)N=C(C1CCC(C)CC1)NC2=O (stereo not drawn) [Compound 575, 3-(3,5-Dimethyl-4-{(E)-2-[2-(4-methyl-cyclohexyl)-4-oxo-1,3,8-triaza-spiro[4.5]dec-1-ene-8-sulfonyl]-vinyl}-phenyl)-imidazolidine-2,4-dione]"
11,95%,"CCOCc1cc(NC(C)=O)ccc1/C=C/S(=O)(=O)N1CCC2(CC1)N=C(C1CCC(C)CC1)NC2=O (stereo not drawn) [Compound 576, N-(3-ethoxymethyl-4-{(E)-2-[2-(4-methyl-cyclohexyl)-4-oxo-1,3,8-triaza-spiro[4.5]dec-1-ene-8-sulfonyl]-vinyl}-phenyl)-acetamide]"

# Second part, the compound before the results:
row,Structure (SMILES),cAMP production activity (%)
1,"Cc1cc(CO)cc(C)c1/C=C/S(=O)(=O)N1CCC2(CC1)N=C(C1CCC(CCC(F)(F)F)CC1)NC2=O (stereo not drawn) [Compound 553, 8-[(E)-2-(4-hydroxymethyl-2,6-dimethyl-phenyl)-ethenesulfonyl]-2-[4-(3,3,3-trifluoro-propyl)-cyclohexyl]-1,3,8-triaza-spiro[4.5]dec-1-en-4-one]",80%
2,"Cc1cc(CN2C(=O)CNC2=O)cc(C)c1/C=C/S(=O)(=O)N1CCC2(CC1)N=C(C1CCC(CCC(F)(F)F)CC1)NC2=O (stereo not drawn) [Compound 554, 3-[3,5-dimethyl-4-((E)-2-{4-oxo-2-[4-(3,3,3-trifluoro-propyl)-cyclohexyl]-1,3,8-triaza-spiro[4.5]dec-1-ene-8-sulfonyl}-vinyl)-benzyl]-imidazolidine-2,4-dione]",82%
3,"Cc1cc(CN2C(=O)NC(C)(C)C2=O)cc(C)c1/C=C/S(=O)(=O)N1CCC2(CC1)N=C(C1CCC(CCC(F)(F)F)CC1)NC2=O (stereo not drawn) [Compound 555, 3-[3,5-dimethyl-4-((E)-2-{4-oxo-2-[4-(3,3,3-trifluoro-propyl)-cyclohexyl]-1,3,8-triaza-spiro[4.5]dec-1-ene-8-sulfonyl}-vinyl)-benzyl]-5,5-dimethyl-imidazolidine-2,4-dione]",40%
4,"Cc1cc(CN2CCCC2=O)cc(C)c1/C=C/S(=O)(=O)N1CCC2(CC1)N=C(C1CCC(CCC(F)(F)F)CC1)NC2=O (stereo not drawn) [Compound 556, 8-{(E)-2-[2,6-dimethyl-4-(2-oxo-pyrrolidin-1-ylmethyl)-phenyl]-ethenesulfonyl}-2-[4-(3,3,3-trifluoro-propyl)-cyclohexyl]-1,3,8-triaza-spiro[4.5]dec-1-en-4-one]",19%
5,"Cc1cc(CN2C(=O)CCC2=O)cc(C)c1/C=C/S(=O)(=O)N1CCC2(CC1)N=C(C1CCC(CCC(F)(F)F)CC1)NC2=O (stereo not drawn) [Compound 557, 1-[3,5-dimethyl-4-((E)-2-{4-oxo-2-[4-(3,3,3-trifluoro-propyl)-cyclohexyl]-1,3,8-triaza-spiro[4.5]dec-1-ene-8-sulfonyl}-vinyl)-benzyl]-pyrrolidine-2,5-dione]",50%
6,"CC(=O)NCc1cc(C)c(/C=C/S(=O)(=O)N2CCC3(CC2)N=C(C2CCC(CCC(F)(F)F)CC2)NC3=O)c(C)c1 (stereo not drawn) [Compound 558, N-[3,5-dimethyl-4-((E)-2-{4-oxo-2-[4-(3,3,3-trifluoro-propyl)-cyclohexyl]-1,3,8-triaza-spiro[4.5]dec-1-ene-8-sulfonyl}-vinyl)-benzyl]-acetamide]",74%
7,"CC(=O)N(C)Cc1cc(C)c(/C=C/S(=O)(=O)N2CCC3(CC2)N=C(C2CCC(CCC(F)(F)F)CC2)NC3=O)c(C)c1 (stereo not drawn) [Compound 559, N-[3,5-dimethyl-4-((E)-2-{4-oxo-2-[4-(3,3,3-trifluoro-propyl)-cyclohexyl]-1,3,8-triaza-spiro[4.5]dec-1-ene-8-sulfonyl}-vinyl)-benzyl]-N-methyl-acetamide]",72%
8,"CCCCC1CCC(C2=NC3(CCN(S(=O)(=O)/C=C/c4ccc(N5C(=O)CNC5=O)cc4C)CC3)C(=O)N2)CC1 (stereo not drawn) [Compound 560, 3-(4-{(E)-2-[2-(4-Butyl-cyclohexyl)-4-oxo-1,3,8-triaza-spiro[4.5]dec-1-ene-8-sulfonyl]-vinyl}-3-methyl-phenyl)-imidazolidine-2,4-dione]",66%
9,"CCCCC1CCC(C2=NC3(CCN(S(=O)(=O)/C=C/c4c(C)cc(N(CCOCCOC)C(C)=O)cc4C)CC3)C(=O)N2)CC1 (stereo not drawn) [Compound 561, N-(4-{(E)-2-[2-(4-butyl-cyclohexyl)-4-oxo-1,3,8-triaza-spiro[4.5]dec-1-ene-8-sulfonyl]-vinyl}-3,5-dimethyl-phenyl)-N-[2-(2-methoxy-ethoxy)-ethyl]-acetamide]",52%
10,"CCCCC1CCC(C2=NC3(CCN(S(=O)(=O)/C=C/c4c(C)cc(N(CCOCCF)C(C)=O)cc4C)CC3)C(=O)N2)CC1 (stereo not drawn) [Compound 562, N-(4-{(E)-2-[2-(4-butyl-cyclohexyl)-4-oxo-1,3,8-triaza-spiro[4.5]dec-1-ene-8-sulfonyl]-vinyl}-3,5-dimethyl-phenyl)-N-[2-(2-fluoro-ethoxy)-ethyl]-acetamide]",74%
11,"Cc1cc(N2C(=O)CNC2=O)ccc1/C=C/S(=O)(=O)N1CCC2(CC1)N=C(C1CCC(C(C)C)CC1)NC2=O (stereo not drawn) [Compound 563, 3-(4-{(E)-2-[2-(4-Isopropyl-cyclohexyl)-4-oxo-1,3,8-triaza-spiro[4.5]dec-1-ene-8-sulfonyl]-vinyl}-3-methyl-phenyl)-imidazolidine-2,4-dione]",69%
12,"Cc1cc(N2C(=O)CNC2=O)cc(C)c1/C=C/S(=O)(=O)N1CCC2(CC1)N=C(C1CCC(C(C)C)CC1)NC2=O (stereo not drawn) [Compound 564, 3-(4-{(E)-2-[2-(4-isopropyl-cyclohexyl)-4-oxo-1,3,8-triaza-spiro[4.5]dec-1-ene-8-sulfonyl]-vinyl}-3,5-dimethyl-phenyl)-imidazolidine-2,4-dione]",68%
13,"CN(C)C(=O)NCc1ccc(/C=C/S(=O)(=O)N2CCC3(CC2)N=C(C2CCCCC2)NC3=O)cc1 [Compound 565, 3-{4-[(E)-2-(2-cyclohexyl-4-oxo-1,3,8-triaza-spiro[4.5]dec-1-ene-8-sulfonyl)-vinyl]-benzyl}-1,1-dimethyl-urea]",45%
